In ChEMBL document CHEMBL3045535, “Evaluation of lufenuron as a chemosterilant against fruit flies of the genus Anastrepha (Diptera: Tephritidae)” (2010):
The source made the active and inactive calls. The calls are words filed in the database; no cut-off is given here.

Tests used:
Anastrepha striata [1] = experiment: Reduction of fertility in 7 days old adult of Anastrepha striata assessed as reduction of egg hatching at 30 mg/g treated with diet measured after 5 days oviposition; assay type: functional; design: scale not given: the % may be the effect or the level left
Anastrepha serpentina [2] = experiment: Reduction of fertility in 7 days old adult of Anastrepha serpentina assessed as reduction of egg hatching at 0.1 mg/g treated with diet measured after 9 days oviposition; assay type: functional; design: scale not given: the % may be the effect or the level left
Anastrepha ludens [3] = experiment: Reduction of fertility in 7 days old adult of Anastrepha ludens assessed as reduction of egg hatching at 0.5 mg/g treated with diet measured after 1 day oviposition; assay type: functional; design: scale not given: the % may be the effect or the level left
Anastrepha ludens [4] = experiment: Reduction of fertility in 7 days old adult of Anastrepha ludens assessed as reduction of egg hatching at 5 mg/g treated with diet measured after 1 day oviposition; assay type: functional; design: scale not given: the % may be the effect or the level left
Anastrepha obliqua [5] = experiment: Reduction of fertility in 7 days old adult of Anastrepha obliqua assessed as reduction of egg hatching at 10 mg/g treated with diet measured after 1 day oviposition; assay type: functional; design: scale not given: the % may be the effect or the level left
Anastrepha striata [6] = experiment: Reduction of fertility in 7 days old adult of Anastrepha striata assessed as reduction of egg hatching at 5 mg/g treated with diet measured after 11 days oviposition; assay type: functional; design: scale not given: the % may be the effect or the level left
Anastrepha ludens [7] = experiment: Reduction of fertility in 7 days old adult of Anastrepha ludens assessed as reduction of egg hatching at 1 mg/g treated with diet measured after 7 days oviposition; assay type: functional; design: scale not given: the % may be the effect or the level left
Anastrepha serpentina [8] = experiment: Reduction of fertility in 7 days old adult of Anastrepha serpentina assessed as reduction of egg hatching at 0.5 mg/g treated with diet measured after 5 days oviposition; assay type: functional; design: scale not given: the % may be the effect or the level left
Anastrepha obliqua [9] = experiment: Reduction of fertility in 7 days old adult of Anastrepha obliqua assessed as reduction of egg hatching at 0.5 mg/g treated with diet measured after 1 day oviposition; assay type: functional; design: scale not given: the % may be the effect or the level left
Anastrepha obliqua [10] = experiment: Effect on fertility in 7 days old adult male of Anastrepha obliqua at 30 mg/g treated with diet after 24 hr in presence of untreated adult female of Anastrepha obliqua; assay type: functional, organism-based
Anastrepha ludens [11] = experiment: Reduction of fertility in 7 days old adult of Anastrepha ludens assessed as reduction of egg hatching at 0.5 mg/g treated with diet measured after 5 days oviposition; assay type: functional; design: scale not given: the % may be the effect or the level left
Anastrepha serpentina [12] = experiment: Reduction of fertility in 7 days old adult of Anastrepha serpentina assessed as reduction of egg hatching at 0.5 mg/g treated with diet measured after 9 days oviposition; assay type: functional; design: scale not given: the % may be the effect or the level left
Anastrepha striata [13] = experiment: Reduction of fertility in 7 days old adult of Anastrepha striata assessed as reduction of egg hatching at 5 mg/g treated with diet measured after 3 days oviposition; assay type: functional; design: scale not given: the % may be the effect or the level left
Anastrepha obliqua [14] = experiment: Reduction of fertility in 7 days old adult of Anastrepha obliqua assessed as reduction of egg hatching at 30 mg/g treated with diet measured after 1 day oviposition; assay type: functional; design: scale not given: the % may be the effect or the level left
Anastrepha ludens [15] = experiment: Reduction of fertility in 7 days old adult of Anastrepha ludens assessed as reduction of egg hatching at 10 mg/g treated with diet measured after 7 days oviposition; assay type: functional; design: scale not given: the % may be the effect or the level left
Anastrepha obliqua [16] = experiment: Reduction of fertility in 7 days old adult of Anastrepha obliqua assessed as reduction of egg hatching at 0.1 mg/g treated with diet measured after 3 days oviposition; assay type: functional; design: scale not given: the % may be the effect or the level left
Anastrepha serpentina [17] = experiment: Reduction of fertility in 7 days old adult of Anastrepha serpentina assessed as reduction of egg hatching at 10 mg/g treated with diet measured after 3 days oviposition; assay type: functional; design: scale not given: the % may be the effect or the level left
Anastrepha ludens [18] = experiment: Reduction of fertility in 7 days old adult of Anastrepha ludens assessed as reduction of egg hatching at 10 mg/g treated with diet measured after 5 days oviposition; assay type: functional; design: scale not given: the % may be the effect or the level left
Anastrepha obliqua [19] = experiment: Reduction of fertility in 7 days old adult of Anastrepha obliqua assessed as reduction of egg hatching at 1 mg/g treated with diet measured after 1 day oviposition; assay type: functional; design: scale not given: the % may be the effect or the level left
Anastrepha striata [20] = experiment: Reduction of fertility in 7 days old adult of Anastrepha striata assessed as reduction of egg hatching at 0.1 mg/g treated with diet measured after 11 days oviposition; assay type: functional; design: scale not given: the % may be the effect or the level left
Anastrepha serpentina [21] = experiment: Reduction of fertility in 7 days old adult of Anastrepha serpentina assessed as reduction of egg hatching at 0.1 mg/g treated with diet measured after 3 days oviposition; assay type: functional; design: scale not given: the % may be the effect or the level left
Anastrepha ludens [22] = experiment: Reduction of fertility in 7 days old adult of Anastrepha ludens assessed as reduction of egg hatching at 0.1 mg/g treated with diet measured after 9 days oviposition; assay type: functional; design: scale not given: the % may be the effect or the level left
Anastrepha striata [23] = experiment: Reduction of fertility in 7 days old adult of Anastrepha striata assessed as reduction of egg hatching at 1 mg/g treated with diet measured after 1 day oviposition; assay type: functional; design: scale not given: the % may be the effect or the level left
Anastrepha obliqua [24] = experiment: Reduction of fertility in 7 days old adult of Anastrepha obliqua assessed as reduction of egg hatching at 0.5 mg/g treated with diet measured after 3 days oviposition; assay type: functional; design: scale not given: the % may be the effect or the level left
Anastrepha serpentina [25] = experiment: Reduction of fertility in 7 days old adult of Anastrepha serpentina assessed as reduction of egg hatching at 5 mg/g treated with diet measured after 9 days oviposition; assay type: functional; design: scale not given: the % may be the effect or the level left
Anastrepha serpentina [26] = experiment: Reduction of fertility in 7 days old adult of Anastrepha serpentina assessed as reduction of egg hatching at 5 mg/g treated with diet measured after 5 days oviposition; assay type: functional; design: scale not given: the % may be the effect or the level left
Anastrepha serpentina [27] = experiment: Reduction of fertility in 7 days old adult of Anastrepha serpentina assessed as reduction of egg hatching at 5 mg/g treated with diet measured after 11 days oviposition; assay type: functional; design: scale not given: the % may be the effect or the level left
Anastrepha obliqua [28] = experiment: Reduction of fertility in 7 days old adult of Anastrepha obliqua assessed as reduction of egg hatching at 1 mg/g treated with diet measured after 5 days oviposition; assay type: functional; design: scale not given: the % may be the effect or the level left
Anastrepha serpentina [29] = experiment: Reduction of fertility in 7 days old adult of Anastrepha serpentina assessed as reduction of egg hatching at 5 mg/g treated with diet measured after 3 days oviposition; assay type: functional; design: scale not given: the % may be the effect or the level left
Anastrepha serpentina [30] = experiment: Effect on fertility in 7 days old adult male of Anastrepha serpentina at 30 mg/g treated with diet after 24 hr in presence of untreated adult female of Anastrepha serpentina; assay type: functional, organism-based
Anastrepha striata [31] = experiment: Reduction of fertility in 7 days old adult of Anastrepha striata assessed as reduction of egg hatching at 30 mg/g treated with diet measured after 1 day oviposition; assay type: functional; design: scale not given: the % may be the effect or the level left
Anastrepha serpentina [32] = experiment: Reduction of fertility in 7 days old adult of Anastrepha serpentina assessed as reduction of egg hatching at 0.5 mg/g treated with diet measured after 3 days oviposition; assay type: functional; design: scale not given: the % may be the effect or the level left
Anastrepha striata [33] = experiment: Reduction of fertility in 7 days old adult of Anastrepha striata assessed as reduction of egg hatching at 10 mg/g treated with diet measured after 1 day oviposition; assay type: functional; design: scale not given: the % may be the effect or the level left
Anastrepha ludens [34] = experiment: Reduction of fertility in 7 days old adult of Anastrepha ludens assessed as reduction of egg hatching at 0.5 mg/g treated with diet measured after 7 days oviposition; assay type: functional; design: scale not given: the % may be the effect or the level left
Anastrepha serpentina [35] = experiment: Reduction of fertility in 7 days old adult of Anastrepha serpentina assessed as reduction of egg hatching at 10 mg/g treated with diet measured after 1 day oviposition; assay type: functional; design: scale not given: the % may be the effect or the level left
Anastrepha obliqua [36] = experiment: Reduction of fertility in 7 days old adult of Anastrepha obliqua assessed as reduction of egg hatching at 5 mg/g treated with diet measured after 9 days oviposition; assay type: functional; design: scale not given: the % may be the effect or the level left
Anastrepha obliqua [37] = experiment: Effect on fecundity in 7 days old adult female of Anastrepha obliqua at 30 mg/g treated with diet after 24 hr in presence of untreated adult male of Anastrepha obliqua; assay type: functional, organism-based
Anastrepha serpentina [38] = experiment: Reduction of fertility in 7 days old adult of Anastrepha serpentina assessed as reduction of egg hatching at 1 mg/g treated with diet measured after 11 days oviposition; assay type: functional; design: scale not given: the % may be the effect or the level left
Anastrepha ludens [39] = experiment: Reduction of fertility in 7 days old adult of Anastrepha ludens assessed as reduction of egg hatching at 0.1 mg/g treated with diet measured after 11 days oviposition; assay type: functional; design: scale not given: the % may be the effect or the level left
Anastrepha obliqua [40] = experiment: Reduction of fertility in 7 days old adult of Anastrepha obliqua assessed as reduction of egg hatching at 30 mg/g treated with diet measured after 9 days oviposition; assay type: functional; design: scale not given: the % may be the effect or the level left

O=C(NC(=O)c1c(F)cccc1F)Nc1cc(Cl)c(OC(F)(F)C(F)C(F)(F)F)cc1Cl (racemic) [LUFENURON]
Activity (Anastrepha striata [1]): 4% | Activity (Anastrepha serpentina [2]): 81.7% | Activity (Anastrepha ludens [3]): 8.7% | Activity (Anastrepha ludens [4]): 19.3% | Activity (Anastrepha obliqua [5]): 0% | Activity (Anastrepha striata [6]): 6.7% | Activity (Anastrepha ludens [7]): 20% | Activity (Anastrepha serpentina [8]): 93.3% | Activity (Anastrepha obliqua [9]): 8.7% | Activity (Anastrepha obliqua [10]): inactive | Activity (Anastrepha ludens [11]): 10.7% | Activity (Anastrepha serpentina [12]): 88% | Activity (Anastrepha striata [13]): 4.7% | Activity (Anastrepha obliqua [14]): 0% | Activity (Anastrepha ludens [15]): 13.3% | Activity (Anastrepha obliqua [16]): 7.3% | Activity (Anastrepha serpentina [17]): 34.4% | Activity (Anastrepha ludens [18]): 2.7% | Activity (Anastrepha obliqua [19]): 0% | Activity (Anastrepha striata [20]): 72.7% | Activity (Anastrepha serpentina [21]): 95% | Activity (Anastrepha ludens [22]): 44.7% | Activity (Anastrepha striata [23]): 6.7% | Activity (Anastrepha obliqua [24]): 2.7% | Activity (Anastrepha serpentina [25]): 83.3% | Activity (Anastrepha serpentina [26]): 83.1% | Activity (Anastrepha serpentina [27]): 86.7% | Activity (Anastrepha obliqua [28]): 0% | Activity (Anastrepha serpentina [29]): 58.9% | Activity (Anastrepha serpentina [30]): inactive | Activity (Anastrepha striata [31]): 8.7% | Activity (Anastrepha serpentina [32]): 87.3% | Activity (Anastrepha striata [33]): 2% | Activity (Anastrepha ludens [34]): 12% | Activity (Anastrepha serpentina [35]): 18.3% | Activity (Anastrepha obliqua [36]): 0.7% | Activity (Anastrepha obliqua [37]): inactive | Activity (Anastrepha serpentina [38]): 91.2% | Activity (Anastrepha ludens [39]): 66.7% | Activity (Anastrepha obliqua [40]): 1.3%
